Compared with `Cc1cccc(CC(=O)O)c1OCCCc1cn(-c2ccc(C(F)(F)F)cn2)nc1C(C)(C)C` [Example 346, [2-(3-{3-tert-butyl-1-[5-(trifluoromethyl)-2-pyridinyl]-1H-pyrazol-4-yl}propoxy)-3-methylphenyl]acetic acid], `CCc1cccc(CC(=O)O)c1OCCCc1cn(-c2ccc(C(F)(F)F)cn2)nc1C(C)(C)C` [Example 347, [2-(3-{3-tert-butyl-1-[5-(trifluoromethyl)-2-pyridinyl]-1H-pyrazol-4-yl}propoxy)-3-ethylphenyl]acetic acid] is higher in melting point: 86 to 87 °C for the first, 98 to 99 °C for the second.

First: CC(C)c1nn(-c2ccc(C(F)(F)F)cn2)cc1CCCOc1nn(C)cc1CCC(=O)O [Example 310, 3-[3-(3-{3-isopropyl-1-[5-(trifluoromethyl)-2-pyridinyl]-1H-pyrazol-4-yl}propoxy)-1-methyl-1H-pyrazol-4-yl]propanoic acid]
Second: CC(C)c1nn(-c2ccc(C(F)(F)F)cn2)cc1CCCOc1cc(CCC(=O)O)n(C(C)C)n1 [Example 263, 3-[1-isopropyl-3-(3-{3-isopropyl-1-[5-(trifluoromethyl)-2-pyridyl]-1H-pyrazol-4-yl}propoxy)-1H-pyrazol-5-yl]propanoic acid]
The melting point of the first is lower: 124 to 125 °C for the first, 130 to 131 °C for the second.

First: Cc1cccc(CC(=O)O)c1OCCCc1cn(-c2ccc(Cl)cn2)nc1C(C)(C)C [Example 371, (2-{3-[3-tert-butyl-1-(5-chloropyridin-2-yl)-1H-pyrazol-4-yl]propoxy}-3-methylphenyl)acetic acid]
Second: CC(C)c1nn(-c2ccc(Cl)cn2)cc1CCCOc1ccccc1CC(=O)O [Example 308, (2-{3-[1-(5-chloro-2-pyridinyl)-3-isopropyl-1H-pyrazol-4-yl]propoxy}phenyl)acetic acid]
The melting point of the first is lower: 112 to 113 °C for the first, 141 to 142 °C for the second.

First: O=C(O)Cc1cccc(OCCCc2cc(-c3ccc(C(F)(F)F)cc3)no2)c1 [Example 3, [3-(3-{3-[4-(trifluoromethyl)phenyl]-5-isoxazolyl}propoxy)phenyl]acetic acid]
Second: CCCc1nn(-c2ccc(C(F)(F)F)cn2)cc1COc1cccc(CC(=O)O)c1 [Example 147, [3-({3-propyl-1-[5-(trifluoromethyl)-2-pyridyl]-1H-pyrazol-4-yl}methoxy)phenyl]acetic acid]
The melting point of the first is higher: 126 to 127 °C for the first, 77 to 78 °C for the second.

First: CCCc1nn(-c2ccc(C(F)(F)F)cn2)cc1CCCCOc1nn(-c2ccccc2)cc1CC(=O)O [Example 66, [1-phenyl-3-(4-{3-propyl-1-[5-(trifluoromethyl)-2-pyridinyl]-1H-pyrazol-4-yl}butoxy)-1H-pyrazol-4-yl]acetic acid]
Second: CCOc1nn(-c2ccc(C(F)(F)F)cn2)cc1CCCOc1nn(-c2ccccc2)cc1CC(=O)O [Example 136, [3-(3-{3-ethoxy-1-[5-(trifluoromethyl)-2-pyridyl]-1H-pyrazol-4-yl}propoxy)-1-phenyl-1H-pyrazol-4-yl]acetic acid]
The melting point of the first is lower: 114 to 115 °C for the first, 117 to 118 °C for the second.

First: CCOc1nn(-c2ccc(C(F)(F)F)cn2)cc1CCCOc1c(CCC(=O)O)cccc1OC [Example 145, 3-[2-(3-{3-ethoxy-1-[5-(trifluoromethyl)-2-pyridyl]-1H-pyrazol-4-yl}propoxy)-3-methoxyphenyl]propionic acid]
Second: CCOc1nn(-c2ccc(C(F)(F)F)cn2)cc1CCCOc1cccc(OC)c1CC(=O)O [Example 177, [6-(3-{3-ethoxy-1-[5-(trifluoromethyl)-2-pyridyl]-1H-pyrazol-4-yl}propoxy)-2-methoxyphenyl]acetic acid]
The melting point of the first is lower: 87 to 88 °C for the first, 150 to 151 °C for the second.

First: CCOc1cc(CCC(=O)O)ccc1OCCCc1cn(-c2ccc(C(F)(F)F)cn2)nc1OCC [Example 162, 3-[3-ethoxy-4-(3-{3-ethoxy-1-[5-(trifluoromethyl)-2-pyridyl]-1H-pyrazol-4-yl}propoxy)phenyl]propanoic acid]
Second: CCOc1cc(OCCCCc2cn(-c3ccc(C(F)(F)F)cn3)nc2OCC)ccc1CCC(=O)O [Example 107, 3-[2-ethoxy-4-(4-{3-ethoxy-1-[5-(trifluoromethyl)-2-pyridinyl]-1H-pyrazol-4-yl}butoxy)phenyl]propanoic acid]
The melting point of the first is higher: 114 to 115 °C for the first, 101 to 102 °C for the second.

First: CCOc1nn(-c2ccc(C(F)(F)F)cn2)cc1CCOc1ccc(CC(=O)O)cc1 [Example 73, [4-(2-{3-ethoxy-1-[5-(trifluoromethyl)-2-pyridinyl]-1H-pyrazol-4-yl}ethoxy)phenyl]acetic acid]
Second: CCOc1nn(-c2ccc(C(F)(F)F)cn2)cc1CCCOc1ccc(OC(C)(C)C(=O)O)cc1 [Example 18, 2-[4-(3-{3-ethoxy-1-[5-(trifluoromethyl)-2-pyridyl]-1H-pyrazol-4-yl}propoxy)phenoxy]-2-methylpropionic acid]
The melting point of the first is higher: 142 to 143 °C for the first, 91 to 92 °C for the second.

First: CCCc1nn(-c2ccc(C(F)(F)F)cn2)cc1CCCOc1c(C#N)cccc1CC(=O)O [Example 233, [3-cyano-2-(3-{3-propyl-1-[5-(trifluoromethyl)-2-pyridinyl]-1H-pyrazol-4-yl}propoxy)phenyl]acetic acid]
Second: CCCc1nn(-c2ccc(C(F)(F)F)cn2)cc1CCCOc1ccc(OC)c(CCC(=O)O)c1 [Example 81, 3-[2-methoxy-5-(3-{3-propyl-1-[5-(trifluoromethyl)-2-pyridinyl]-1H-pyrazol-4-yl}propoxy)phenyl]propanoic acid]
The melting point of the first is higher: 146 to 147 °C for the first, 104 to 106 °C for the second.

First: CCc1ccc(OC(C)(C)C(=O)O)cc1OCCCc1cn(-c2ccc(C(F)(F)F)cn2)nc1C(C)C [Example 377, 2-[4-ethyl-3-(3-{3-isopropyl-1-[5-(trifluoromethyl)-2-pyridinyl]-1H-pyrazol-4-yl}propoxy)phenoxy]-2-methylpropanoic acid]
Second: COc1ccc(OC(C)(C)C(=O)O)cc1OCCCc1cn(-c2ccc(C(F)(F)F)cn2)nc1C(C)C [Example 376, 2-[3-(3-{3-isopropyl-1-[5-(trifluoromethyl)-2-pyridinyl]-1H-pyrazol-4-yl}propoxy)-4-methoxyphenoxy]-2-methylpropanoic acid]
The melting point of the first is higher: 115 to 116 °C for the first, 106 to 107 °C for the second.

`CCOc1cc(OCCCc2cn(-c3ccc(C(F)(F)F)cn3)nc2O)ccc1CCC(=O)OC` [Example 171, methyl 3-[2-ethoxy-4-(3-{3-hydroxy-1-[5-(trifluoromethyl)-2-pyridyl]-1H-pyrazol-4-yl}propoxy)phenyl]propanoate] and `CCOc1nn(-c2ccc(C(F)(F)F)cn2)cc1CCCOc1cc(OC)ccc1CC(=O)O` [Example 142, [2-(3-{3-ethoxy-1-[5-(trifluoromethyl)-2-pyridyl]-1H-pyrazol-4-yl}propoxy)-4-methoxyphenyl]acetic acid] fall in the same range of melting point: 147 to 148 °C for the first, 147 to 148 °C for the second.

First: CCOc1cc(OCCCc2cn(-c3cc(C(F)(F)F)ccn3)nc2OCC)ccc1CCC(=O)O [Example 298, 3-[2-ethoxy-4-(3-{3-ethoxy-1-[4-(trifluoromethyl)-2-pyridinyl]-1H-pyrazol-4-yl}propoxy)phenyl]propanoic acid]
Second: CCOc1nn(-c2ccc(C(F)(F)F)cn2)cc1CCCOc1ccc(CCC(=O)O)c(OCc2ccccc2)c1 [Example 112, 3-[2-(benzyloxy)-4-(3-{3-ethoxy-1-[5-(trifluoromethyl)-2-pyridinyl]-1H-pyrazol-4-yl}propoxy)phenyl]propanoic acid]
The melting point of the first is lower: 119 to 120 °C for the first, 128 to 130 °C for the second.

First: CCOc1nn(-c2cc(C(F)(F)F)ccn2)cc1CCCOc1ccccc1CC(=O)O [Example 288, [2-(3-{3-ethoxy-1-[4-(trifluoromethyl)-2-pyridinyl]-1H-pyrazol-4-yl}propoxy)phenyl]acetic acid]
Second: Cc1nn(-c2ccc(C(F)(F)F)cn2)cc1CCCOc1ccccc1CC(=O)O [Example 141, [2-(3-{3-methyl-1-[5-(trifluoromethyl)-2-pyridyl]-1H-pyrazol-4-yl}propoxy)phenyl]acetic acid]
The melting point of the first is lower: 121 to 122 °C for the first, 128 to 129 °C for the second.

Compared with `CCCc1nn(-c2ccc(C(F)(F)F)cn2)cc1CCCCOc1ccc(CCC(=O)O)c(OC)c1` [Example 89, 3-[2-methoxy-4-(4-{3-propyl-1-[5-(trifluoromethyl)-2-pyridyl]-1H-pyrazol-4-yl}butoxy)phenyl]propionic acid], `CCCc1nn(-c2ccc(C(F)(F)F)cn2)cc1CCCOc1cc(CCC(=O)O)ccc1OC` [Example 93, 3-[4-methoxy-3-(3-{3-propyl-1-[5-(trifluoromethyl)-2-pyridyl]-1H-pyrazol-4-yl}propoxy)phenyl]propionic acid] is higher in melting point: 91 to 92 °C for the first, 147 to 148 °C for the second.

First: CCCCc1nn(-c2ccc(C(F)(F)F)cn2)cc1CCCOc1nn(C)cc1CC(=O)O [Example 199, [3-(3-{3-butyl-1-[5-(trifluoromethyl)-2-pyridyl]-1H-pyrazol-4-yl}propoxy)-1-methyl-1H-pyrazol-4-yl]acetic acid]
Second: CCCc1nn(-c2ccc(C(F)(F)F)cn2)cc1CCCOc1cc(CCC(=O)O)n(C)n1 [Example 45, 3-[1-methyl-3-(3-{3-propyl-1-[5-(trifluoromethyl)-2-pyridyl]-1H-pyrazol-4-yl}propoxy)-1H-pyrazol-5-yl]propionic acid]
The melting point of the first is higher: 125 to 126 °C for the first, 80 to 81 °C for the second.

Compared with `O=C(O)CCc1cc(OCCCc2cn(-c3ccc(C(F)(F)F)cn3)nc2C2CCCCC2)nn1C1CCCCC1` [Example 261, 3-[1-cyclohexyl-3-(3-{3-cyclohexyl-1-[5-(trifluoromethyl)-2-pyridyl]-1H-pyrazol-4-yl}propoxy)-1H-pyrazol-5-yl]propanoic acid], `CCOc1nn(-c2ccc(C(F)(F)F)cn2)cc1CCCOc1cc(CCC(=O)O)n(C2CCCCC2)n1` [Example 257, 3-[1-cyclohexyl-3-(3-{3-ethoxy-1-[5-(trifluoromethyl)-2-pyridyl]-1H-pyrazol-4-yl}propoxy)-1H-pyrazol-5-yl]propanoic acid] is lower in melting point: 190 to 191 °C for the first, 89 to 90 °C for the second.

For `CCCc1nn(-c2ccc(C(F)(F)F)cn2)cc1CCCCn1cc(CCC(=O)[O-])c(OCC)n1.[Na+]` [Example 78, sodium 3-[3-ethoxy-1-(4-{3-propyl-1-[5-(trifluoromethyl)-2-pyridinyl]-1H-pyrazol-4-yl}butyl)-1H-pyrazol-4-yl]propanoate], the melting point was 250 to 251 °C.

Reference: patent US20060148858A1, “1, 2-Azole derivatives with hypoglycemic and hypolipidemic activity” (priority 2002, published 2006)
